Test results published in patent US6768044B1, “Chimeric hydroxyl-phenyl pyruvate dioxygenase, DNA sequence and method for obtaining plants containing such a gene, with herbicide tolerance” (priority 2000, dated 2004).

Assays:
[1] = system: Pseudomonas fluorescens A32 HPPD; assay type: cell-based; settings: E. coli culture containing vector pRP C; for end concentration giving identical results (total absence of staining): compound in DMSO solution
Text: pRP C: The vector pRP A (which is described in the application WO 96/38567), which contains a genomic DNA fragment and the encoding region of the Pseudomonas fluorescens A32 HPPD gene, was digested with NcoI, purified and then ligated into the expression vector pKK233-2 (Clontech) which itself had been digested with NcoI, the only cloning site of this vector. The orientation of the gene in the resulting vector pRP C, which allows expression under-the control of the trc promoter, was checked.
(§1) A YT-broth-type culture medium with 1% agarose (Gibco BRL ultra pure) and 5 mM L-tyrosine (Sigma), which contains the selection agent for the above vector pRP C is poured into 96-well plates at 100 μl per well. 10 μl of an E. coli culture in the exponential growth phase which contains the vector pRP C is applied to each well.
A series was established with identical culture medium containing different concentrations (0 mM to 14 mM) of 2-cyano-3-cyclopropyl-l-(2-methylsulphonyl-4-trifluoromethylphenyl)-propane-i,3-dione (EP 0 496 631) which was solubilized in water and brought to pH 7.5. This molecule is a diketonitrile, known as an efficient inhibitor of HPPD activity (Pallett, K. E. et al. 1997. Pestic. Sci. 50, 83-84).
The end concentrations of the two molecules in DMSO solution are 3.5 mM and 7 mM, respectively.

HPPD activity = assay: In vivo activity of chimeric HPPDs (brown staining of isolated colonies); assay type: cell-based, E. coli; settings: scale from 1 to 10, 10 being the most intense, reflects HPPD activity
Method: as §1
The brown staining was scored on a scale from 1 to 10, 10 being the most intense (as described in Example 1), by comparison with HPPDs derived from Arabidopsis thaliana (FAA) and Daucus carota (FCC).

Molecule | end concentration giving identical results (total absence of staining) [1] [mM] | further results
CCOc1c(S(=O)(=O)CC)ccc(C(=O)C2C(=O)CC(C)CC2=O)c1Cl (stereo not shown) [2-(2-chloro-3-ethoxy-4-(ethyl-sulphonyl)benzoyl)-5-methyl-1,3-cyclohexadione] | 7 | 
CS(=O)(=O)c1cc(C(F)(F)F)ccc1C(=O)C(C#N)C(=O)C1CC1 (stereo not drawn) [2-cyano-3-cyclopropyl-l-(2-methylsulphonyl-4-trifluoromethylphenyl)-propane-i,3-dione] |  | concentration at which a total absence of staining is observed ([1]; YT broth, 1% agarose, 5 mM L-tyrosine, 16 hours at 37° C., compound solubilized in water, pH 7.5, series 0 mM to 14 mM): 7 mM
CSc1ccc(C(=O)C(C#N)C(=O)C2CC2)c(S(C)(=O)=O)c1 (stereo not shown) [2-cyano-3-cyclopropyl-1-(2-methylsulphonyl-4-(methylthio)phenyl)-propane-1,3-dione] | 3.5 | 
FAA: HPPD derived from Arabidopsis thaliana, used for comparison (protein, UniProt P93836 1-445, looked up) 4-hydroxyphenylpyruvate …: MGHQNAAVSENQNHDDGAASSPGFKLVGFSKFVRKNPKSDKFKVKRFHHIEFWCGDATNVARRFSWGLGMRFSAKSDLSTGNMVHASYLLTSGDLRFLFTAPYSPSLSAGEIKPTTTASIPSFDHGSCRSFFSSHGLGVRAVAIEVEDAESAFSISVANGAIPSSPPIVLNEAVTIAEVKLYGDVVLRYVSYKAEDTEKSEFLPGFERVEDASSFPLDYGIRRLDHAVGNVPELGPALTYVAGFTGFHQFAEFTADDVGTAESGLNSAVLASNDEMVLLPINEPVHGTKRKSQIQTYLEHNEGAGLQHLALMSEDIFRTLREMRKRSSIGGFDFMPSPPPTYYQNLKKRVGDVLSDDQIKECEELGILVDRDDQGTLLQIFTKPLGDRPTIFIEIIQRVGCMMKDEEGKAYQSGGCGGFGKGNFSELFKSIEEYEKTLEAKQLVG |  | brown staining score (HPPD activity): 10
